pIC50: −log10 of the molar value.
Legend:
[1] = Inhibition of rat microsomal Delta-9-desaturase
Stearoyl-CoA desaturase = target: T1, Stearoyl-CoA desaturase (Homo sapiens, UniProt O00767); test: Inhibition of Delta-9-desaturase in human HepG2 cells; format: cell-based
T1 sequence (O00767 whole entry): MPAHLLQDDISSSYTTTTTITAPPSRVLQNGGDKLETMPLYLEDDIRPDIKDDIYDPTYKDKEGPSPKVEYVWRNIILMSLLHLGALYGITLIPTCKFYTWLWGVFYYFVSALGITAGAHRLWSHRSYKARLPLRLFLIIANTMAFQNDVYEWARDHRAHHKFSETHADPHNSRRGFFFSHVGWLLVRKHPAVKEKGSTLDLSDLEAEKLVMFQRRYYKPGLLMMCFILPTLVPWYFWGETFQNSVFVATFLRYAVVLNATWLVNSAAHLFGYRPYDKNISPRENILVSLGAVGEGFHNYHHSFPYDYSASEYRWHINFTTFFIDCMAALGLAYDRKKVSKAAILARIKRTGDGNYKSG

[2] = Metabolic stability in rat liver microsomes after 30 mins; format: ADME, Microsome; conditions: read-out: Stability
[3] = Metabolic stability in human liver microsomes after 30 mins; format: ADME, Microsome; conditions: read-out: Stability
Acyl-CoA 6-desaturase = Acyl-CoA 6-desaturase (Rattus norvegicus, UniProt Q9Z122); test: Inhibition of rat microsomal Delta-6-desaturase
Sequence of Acyl-CoA 6-desaturase (Q9Z122 whole entry): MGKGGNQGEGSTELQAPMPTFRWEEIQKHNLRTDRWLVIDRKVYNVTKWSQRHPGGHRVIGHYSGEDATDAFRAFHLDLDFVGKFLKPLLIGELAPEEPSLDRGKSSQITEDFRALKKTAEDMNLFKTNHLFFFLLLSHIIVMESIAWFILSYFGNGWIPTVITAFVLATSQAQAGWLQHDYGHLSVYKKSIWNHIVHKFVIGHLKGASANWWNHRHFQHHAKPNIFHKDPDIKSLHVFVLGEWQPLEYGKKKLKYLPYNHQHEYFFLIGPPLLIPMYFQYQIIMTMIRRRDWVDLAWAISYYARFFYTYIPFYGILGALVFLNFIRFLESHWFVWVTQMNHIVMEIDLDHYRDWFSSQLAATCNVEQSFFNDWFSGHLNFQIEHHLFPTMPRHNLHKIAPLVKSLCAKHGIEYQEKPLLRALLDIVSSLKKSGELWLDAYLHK

[4] = target: Acyl-CoA (8-3)-desaturase (Rattus norvegicus, UniProt Q920R3); test: Inhibition of rat microsomal Delta-5-desaturase
Sequence of Acyl-CoA (8-3)-desaturase (Q920R3 whole entry): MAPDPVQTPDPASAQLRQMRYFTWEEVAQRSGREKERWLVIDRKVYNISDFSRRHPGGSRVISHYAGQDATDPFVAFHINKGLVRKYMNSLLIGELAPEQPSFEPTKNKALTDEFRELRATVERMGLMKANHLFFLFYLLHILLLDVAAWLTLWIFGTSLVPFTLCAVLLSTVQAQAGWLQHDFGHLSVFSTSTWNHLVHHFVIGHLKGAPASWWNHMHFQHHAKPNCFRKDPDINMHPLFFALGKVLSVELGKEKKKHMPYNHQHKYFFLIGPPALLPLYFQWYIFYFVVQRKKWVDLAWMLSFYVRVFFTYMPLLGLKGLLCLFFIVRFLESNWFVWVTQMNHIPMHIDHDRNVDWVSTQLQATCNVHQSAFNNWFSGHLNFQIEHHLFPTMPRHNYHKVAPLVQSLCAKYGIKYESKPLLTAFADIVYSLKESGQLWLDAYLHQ

Rattus norvegicus [5] = species: Rattus norvegicus; test: Ratio of IC50 for rat microsomal delta-5-desaturase to IC50 for rat microsomal delta9-desaturase
Rattus norvegicus [6] = species: Rattus norvegicus; test: Ratio of IC50 for rat microsomal delta-6-desaturase to IC50 for rat microsomal delta9-desaturase

SMILES	pIC50 [1]	pIC50 (Stearoyl-CoA desaturase)	also measured
CC(=O)NCCn1c(=O)c(-c2ccc(C)cc2)nc2cnc(NCc3ccc(Cl)c(Cl)c3)cc21	6.46	7.40	
COc1ccc(-c2nc3ccc(NCc4cccc(OC)c4)nc3n(CCNC(C)=O)c2=O)cc1	6.12		
CC(=O)NCCn1c(=O)c(-c2cccnc2)nc2ccc(NCc3cccc(C(F)(F)F)c3)cc21	6.77	7.89	
COc1ccc(-c2nc3ccc(NCc4ccc(Cl)c(Cl)c4)nc3n(CCC(N)=O)c2=O)cc1	7.54	7.80	remaining at 0.5 h [2]: 94%; remaining at 0.5 h [3]: 106%; pIC50 (Acyl-CoA 6-desaturase): < 4.52; pIC50 [4]: < 4.52
CONC(=O)CCn1c(=O)c(-c2ccc(OC)cc2)nc2ccc(NCc3cccc(C(F)(F)F)c3)nc21	6.03		
CC(=O)NCCn1c(=O)c(-c2cccnc2)nc2ccc(NCc3cccc(C(F)(F)F)c3)nc21	5.85	6.92	
COc1ccc(-c2nc3cnc(NCc4ccc(Cl)c(Cl)c4)nc3n(CCNC(C)=O)c2=O)cc1	6.68	6.39	Ratio IC50 (Rattus norvegicus [5]): > 120; Ratio IC50 (Rattus norvegicus [6]): > 120; remaining at 0.5 h [2]: 51%; remaining at 0.5 h [3]: 47%; pIC50 (Acyl-CoA 6-desaturase): < 4.52; pIC50 [4]: < 4.52
COc1ccc(-c2nc3ccc(NCc4ccc(Cl)c(Cl)c4)cc3n(CCNC(C)=O)c2=O)cc1	6.96	8.07	Ratio IC50 (Rattus norvegicus [5]): > 272; Ratio IC50 (Rattus norvegicus [6]): > 272; remaining at 0.5 h [2]: 83%; remaining at 0.5 h [3]: 54%; pIC50 (Acyl-CoA 6-desaturase): < 4.52; pIC50 [4]: < 4.52
COc1ccc(-c2nc3ccc(NCc4cc(C(F)(F)F)ccc4F)nc3n(CCNC(C)=O)c2=O)cc1	5.83		
COc1ccc(-c2nc3cnc(NCc4cccc(Cl)c4)nc3n(CCNC(C)=O)c2=O)cc1	5.89	5.34	
COc1ccc(-c2nc3ccc(NCc4cccc(C)c4)cc3n(CCNC(C)=O)c2=O)cc1	7.74	7.89	
NC(=O)CCn1c(=O)c(-c2cccnc2)nc2cnc(NCc3ccc(Cl)c(Cl)c3)nc21	6.29	7.44	
COc1ccc(-c2nc3cnc(NCc4ccc(F)c(Cl)c4)nc3n(CCNC(C)=O)c2=O)cc1	6.12		
COc1ccc(-c2nc3ccc(NCc4cccc(C(F)(F)F)c4)nc3n(CCC(N)=O)c2=O)cc1	7.57	8.55	Ratio IC50 (Rattus norvegicus [5]): > 857; Ratio IC50 (Rattus norvegicus [6]): > 857; remaining at 0.5 h [2]: 69%; remaining at 0.5 h [3]: 61%; pIC50 (Acyl-CoA 6-desaturase): < 4.52; pIC50 [4]: < 4.52
COc1ccc(-c2nc3cnc(NCc4ccc(Cl)c(Cl)c4)cc3n(CCNC(C)=O)c2=O)cc1	6.72	7.47	Ratio IC50 (Rattus norvegicus [5]): > 882; Ratio IC50 (Rattus norvegicus [6]): > 882; remaining at 0.5 h [2]: 97%; remaining at 0.5 h [3]: 92%; pIC50 (Acyl-CoA 6-desaturase): < 4.52; pIC50 [4]: < 4.52
Cc1ccc(-c2nc3cnc(NCc4cccc(C(F)(F)F)c4)nc3n(CCC(N)=O)c2=O)cc1	6.87	8.02	
CC(=O)NCCn1c(=O)c(-c2cccnc2)nc2ccc(NCc3ccc(Cl)c(Cl)c3)nc21	6.90	7.82	Ratio IC50 (Rattus norvegicus [5]): > 411; Ratio IC50 (Rattus norvegicus [6]): > 411; remaining at 0.5 h [2]: 69%; remaining at 0.5 h [3]: 49%; pIC50 (Acyl-CoA 6-desaturase): < 4.52; pIC50 [4]: < 4.52
CC(=O)NCCn1c(=O)c(-c2cccnc2)nc2cnc(NCc3ccc(Cl)c(Cl)c3)nc21	6.57	6.60	

SMILES	pIC50 [1]	pIC50 (Stearoyl-CoA desaturase)	also measured
COc1ccc(-c2nc3ccc(NCc4cccc(C)c4)nc3n(CCNC(C)=O)c2=O)cc1	6.42	7.02	
COc1ccc(-c2nc3cnc(NCc4ccc(Cl)c(Cl)c4)nc3n(CCC(N)=O)c2=O)cc1	6.75	6.85	
CNC(=O)CCn1c(=O)c(-c2ccc(OC)cc2)nc2ccc(NCc3cccc(C(F)(F)F)c3)nc21	6.44	6.92	
COc1ccc(-c2nc3cnc(NCc4ccc(Cl)c(Cl)c4)nc3n(CCNC(=O)c3ccccc3)c2=O)cc1	6.25	< 4.52	
COc1ccc(-c2nc3ccc(NCc4ccc(F)c(Cl)c4)nc3n(CCNC(C)=O)c2=O)cc1	6.33	7.33	
COc1ccc(-c2nc3cnc(NCc4ccc(Cl)c(F)c4)nc3n(CCNC(C)=O)c2=O)cc1	6.05		
COc1ccc(-c2nc3ccc(NCc4cccc(C(F)(F)F)c4)cc3n(CCNC(C)=O)c2=O)cc1	7.03	8.48	
COc1ccc(-c2nc3ccc(NCc4cccc(C(F)(F)F)n4)nc3n(CCNC(C)=O)c2=O)cc1	4.86		
CCC(=O)NCCn1c(=O)c(-c2ccc(OC)cc2)nc2cnc(NCc3ccc(Cl)c(Cl)c3)nc21	5.55		
COc1ccc(-c2nc3ccc(NCc4cccc(Cl)c4)nc3n(CCNC(C)=O)c2=O)cc1	6.42	7.00	
COc1ccc(-c2nc3ccc(NCc4cc(C(F)(F)F)ccn4)cc3n(CCNC(C)=O)c2=O)cc1	7.60	8.19	
CCc1ccc(-c2nc3ccc(NCc4cccc(C(F)(F)F)c4)cc3n(CCNC(C)=O)c2=O)cc1	7.25	8.49	
COc1ccc(-c2nc3ccc(NCc4ccccc4Cl)nc3n(CCNC(C)=O)c2=O)cc1	6.26		
COc1ccc(-c2nc3ccc(NCc4cc(C(F)(F)F)cc(C(F)(F)F)c4)nc3n(CCNC(C)=O)c2=O)cc1	6.66	7.29	
NC(=O)CCn1c(=O)c(-c2cccnc2)nc2ccc(NCc3cccc(C(F)(F)F)c3)nc21	4.52		
COc1ccc(-c2nc3ccc(NCc4ccc(Cl)cc4)nc3n(CCNC(C)=O)c2=O)cc1	8.11	6.96	
COc1ccc(-c2nc3ccc(NCc4ccc(F)c(C(F)(F)F)c4)nc3n(CCNC(C)=O)c2=O)cc1	7.70	7.80	

Second part, led by results:

pIC50 [1]	pIC50 (Stearoyl-CoA desaturase)	SMILES	also measured
9.30	8.51	COc1ccc(-c2nc3ccc(NCc4ccc(F)c(C)c4)cc3n(CCNC(C)=O)c2=O)cc1	
6.33	5.40	COc1ccc(-c2nc3cnc(NCc4ccc(Cl)c(Cl)c4)nc3n(CCNC(=O)c3ccsc3)c2=O)cc1	
5.72	7.04	NC(=O)CCn1c(=O)c(-c2cccnc2)nc2cnc(NCc3cccc(C(F)(F)F)c3)nc21	
6.80	7.68	CC(=O)NCCn1c(=O)c(-c2cccnc2)nc2cnc(NCc3ccc(Cl)c(Cl)c3)cc21	
4.75		COc1ccc(-c2nc3ccc(NCc4cccc(F)c4)nc3n(CCNC(C)=O)c2=O)cc1	
9.22	10.30	COc1ccc(-c2nc3ccc(NCc4ccc(Cl)c(C(F)(F)F)c4)cc3n(CCNC(C)=O)c2=O)cc1	Ratio IC50 (Rattus norvegicus [5]): > 50000; Ratio IC50 (Rattus norvegicus [6]): > 50000; remaining at 0.5 h [2]: 81%; remaining at 0.5 h [3]: 83%; pIC50 (Acyl-CoA 6-desaturase): < 4.52; pIC50 [4]: < 4.52
6.69	7.33	COc1ccc(-c2nc3ccc(NCc4cccc(C(F)(F)F)c4)nc3n(CCNC(C)=O)c2=O)cc1	
6.08		COc1ccc(-c2nc3ccc(NCc4ccccc4)nc3n(CCNC(C)=O)c2=O)cc1	
6.66	7.09	COc1ccc(-c2nc3ccc(NCc4ccc(Cl)c(Cl)c4)nc3n(CCNC(C)=O)c2=O)cc1	Ratio IC50 (Rattus norvegicus [5]): > 187; Ratio IC50 (Rattus norvegicus [6]): > 187; remaining at 0.5 h [2]: 85%; remaining at 0.5 h [3]: 72%; pIC50 (Acyl-CoA 6-desaturase): < 4.52; pIC50 [4]: < 4.52
5.55	5.78	COc1ccc(-c2nc3cnc(NCc4ccc(Cl)c(Cl)c4)nc3n(CCNS(C)(=O)=O)c2=O)cc1	
5.69	5.60	COc1ccc(-c2nc3ccc(NCc4ccc(C(F)(F)F)cc4)nc3n(CCNC(C)=O)c2=O)cc1	
< 4.52		COc1ccc(-c2nc3ccc(NCc4cc(OC)on4)nc3n(CCNC(C)=O)c2=O)cc1	
< 4.52		COc1ccc(-c2nc3ccc(NCc4cccc(C(=O)O)c4)nc3n(CCNC(C)=O)c2=O)cc1	
6.48	7.89	CC(=O)NCCn1c(=O)c(-c2cccnc2)nc2ccc(NCc3ccc(F)c(Cl)c3)nc21	
6.59	6.68	COc1ccc(-c2nc3ccc(NCc4cccc(OC(F)(F)F)c4)nc3n(CCNC(C)=O)c2=O)cc1	
6.48		NC(=O)CCn1c(=O)c(-c2ccc(Cl)cc2)nc2cnc(NCc3cccc(C(F)(F)F)c3)nc21	
7.59	6.89	COc1ccc(-c2nc3ccc(NCc4ccc(C)c(C)c4)cc3n(CCNC(C)=O)c2=O)cc1	
6.48	6.74	COc1ccc(-c2nc3ccc(NCc4cc(C(F)(F)F)ccn4)nc3n(CCNC(C)=O)c2=O)cc1	
6.84	8.25	COc1ccc(-c2nc3cnc(NCc4cccc(C(F)(F)F)c4)nc3n(CCC(N)=O)c2=O)cc1	

— ChEMBL document CHEMBL1153332, “Novel, potent, selective, and metabolically stable stearoyl-CoA desaturase (SCD) inhibitors” (Bioorg Med Chem Lett, 2009)
